Experiments:
[1] = test system: Nrf2 transcription factor (human NQO1-ARE reporter) in HuH7 cells; assay: NQO1-ARE Luciferase Reporter Assay; assay type: cell-based; details: Huh-7, 62.5 nM, 18 h, fold over DMSO vehicle, Firefly normalized to Renilla
Source text: NQO1-ARE Luciferase Reporter Assay.
This assay allows for quantitative assessment of the endogenous activity of the Nrf2 transcription factor in cultured mammalian cells. Expression of Firefly luciferase from NQO1-ARE luciferase reporter plasmid is controlled by binding of Nrf2 to a specific enhancer sequence corresponding to the antioxidant response element (ARE) that was identified in the promoter region of the human NADPH:quinone oxidoreductase 1 (NQO1) gene (Xie et al., 1995). The plasmid was constructed by inserting a sequence:
5′-[…]-3′ (SEQ ID NO:1) encompassing the human NQO1-ARE into the pLuc-MCS vector using HindIII/XhoI cloning sites (GenScript Corp., Piscataway, N.J.). The assay is performed in HuH7 cells maintained in DMEM (Invitrogen) supplemented with 10% FBS and 100 U/ml (each) of penicillin and streptomycin. For the assay, cells are plated in 96-well plates at 17,000 cells per well. Twenty four hours later, the cells are co-transfected with 50 ng each of NQO1-ARE reporter plasmid and pRL-TK plasmid using Lipofectamine 2000 transfection reagent (Invitrogen). pRL-TK plasmid constitutively expresses Renilla luciferase and is used as an internal control for normalization of transfection levels. Thirty hours after transfection, the cells are treated with compounds (at concentrations ranging from 0 to 1 μM) for eighteen hours. Firefly and Renilla luciferase activity is assayed by Dual-Glo Luciferase Assay (Promega Corp., Madison, Wis.), the luminescence signal is measured on an L-Max II luminometer (Molecular Devices). Firefly luciferase activity is normalized to the Renilla activity, and fold induction over a vehicle control (DMSO) of normalized Firefly activity is calculated. The fold induction at 62.5 nM concentration is used for comparing relative potencies of compounds to induce Nrf2 transcriptional activity. See Xie T, Belinsky M, Xu Y, Jaiswal A K. ARE- and TRE-mediated regulation of gene expression. Response to xenobiotics and antioxidants. J Biol Chem. (1995) 270(12):6894-6900, which is incorporated herein by reference.

[2] = test system: IFNγ-induced NO production in RAW264.7 mouse macrophages; assay: Suppression of IFNγ-induced nitric oxide production (Griess reagent); assay type: cell-based; details: 2 h pre-treatment (0-200 nM), then IFNγ 24 h, normalized to cell viability
Source text: Nitric Oxide Production and Cell Viability.

[3] = Mus musculus, RAW264.7, RAW264.7 cells

Compound	fold induction at 0.0625 µM [1]	IC50 [2, 3] [nM]	IC50 ([2]; RAW264.7 cells) [nM]
CN1C(=O)C(C#N)=C[C@]2(C)c3nn(C)c(-c4ccccc4)c3CC[C@@H]12 [TX63568]	1.3	> 200	
Cc1cccc(-c2c3c(nn2C)[C@@]2(C)C=C(C#N)C(=O)C(C)(C)[C@@H]2CC3)c1 [TX63512]	1.4	25	
Cn1cc2c(n1)[C@@]1(C)C=C(C#N)C(=O)C(C)(C)[C@@H]1CC2 [TX63341]	1.7		70
Cn1nc2c(c1Cc1ccccc1)CC[C@H]1C(C)(C)C(=O)C(C#N)=C[C@]21C [TX63550]	1.8	54	
Cn1nc2c(c1-c1ccccc1)CC[C@H]1[C@H](Cc3ccccc3)C(=O)C(C#N)=C[C@]21C [TX63607]	1	> 200	
Cn1nc2c(c1-c1cccnc1)CC[C@H]1C(C)(C)C(=O)C(C#N)=C[C@]21C [TX63503]	5.5	17	
COc1cccc(-c2c3c(nn2C)[C@@]2(C)C=C(C#N)C(=O)C(C)(C)[C@@H]2CC3)c1 [TX63513]	2.9	25	
CC[C@@H]1C(=O)C(C#N)=C[C@]2(C)c3nc(-c4ccccc4)ncc3CC[C@@H]12 [TX63598]	1.9	12	
Cn1nc2c(c1-c1ccncc1)CC[C@H]1C(C)(C)C(=O)C(C#N)=C[C@]21C [TX63505]	6.8	16	
Cn1nc2c(c1-c1cccc(F)c1)CC[C@H]1C(C)(C)C(=O)C(C#N)=C[C@]21C [TX63506]	3.2	25	
CC(C)(C)c1ncc2c(n1)[C@@]1(C)C=C(C#N)C(=O)C(C)(C)[C@@H]1CC2 [TX63561]	2.4	44	
Cn1nc2c(c1NC(=O)c1ccccc1)CC[C@H]1C(C)(C)C(=O)C(C#N)=C[C@]21C [TX63531]	1.1	> 200	
Cc1ncc2c(n1)[C@@]1(C)C=C(C#N)C(=O)C(C)(C)[C@@H]1CC2 [TX63468]	2	64	
Cc1ncc2c(n1)[C@@]1(C)C=C(C#N)C(=O)[C@@H](C)[C@@H]1CC2 [TX63554]	1.9	42	
Cn1nc2c(c1-c1ccccc1)CC[C@H]1CC(=O)C(C#N)=C[C@]21C [TX63540]	1.6	66.8	
Cn1cc(-c2c3c(nn2C)[C@@]2(C)C=C(C#N)C(=O)C(C)(C)[C@@H]2CC3)cn1 [TX63588]	5.2	33	
CC1(C)C(=O)C(C#N)=C[C@]2(C)c3c(c(-c4ccccc4)nn3-c3ccccc3)CC[C@@H]12 [TX63605]	2.8	37	
CCOC(=O)c1nc(OC)c2c(n1)[C@@]1(C)C=C(C#N)C(=O)[C@@H](C)[C@@H]1CC2 [TX63730]		16	
Cn1cc2c(n1)[C@@]1(C)C=C(C#N)C(=O)C(C)(C)[C@H]1C2 [TX63436]		> 200	
CC1(C)C(=O)C(C#N)=C[C@]2(C)c3nc(-c4ccccc4)ncc3CC[C@@H]12 [TX63552]	1.9	24	
CC1(C)C(=O)C(C#N)=C[C@]2(C)C(=O)c3cnn(-c4ccccc4)c3C[C@@H]12 [TX63456]		> 200	
Cn1nc2c(c1-c1ccccc1F)CC[C@H]1C(C)(C)C(=O)C(C#N)=C[C@]21C [TX63519]	2.5	21	
Cn1nc2c(c1C(=O)c1ccccc1)CC[C@H]1C(C)(C)C(=O)C(C#N)=C[C@]21C [TX63667]		155	
COc1nc(C2CC2)nc2c1CC[C@H]1[C@H](C)C(=O)C(C#N)=C[C@]21C [TX63761]		8.9	
Cc1nc(-c2c3c(nn2C)[C@@]2(C)C=C(C#N)C(=O)C(C)(C)[C@@H]2CC3)no1 [TX63723]		35	
Cn1nc2c(c1C1CCCCC1)CC[C@H]1C(C)(C)C(=O)C(C#N)=C[C@]21C [TX63591]		74	

Compound	fold induction at 0.0625 µM [1]	IC50 [2, 3] [nM]	IC50 ([2]; RAW264.7 cells) [nM]
CC1(C)C(=O)C(C#N)=C[C@]2(C)c3nc(-c4ccccn4)ncc3CC[C@@H]12 [TX63641]		43	
C[C@@H]1C(=O)C(C#N)=C[C@]2(C)c3nn(C)c(-c4ccccc4)c3CC[C@@H]12 (racemic) [TX63541]	4.4	6	
CC(C)n1nnc(-c2c3c(nn2C)[C@@]2(C)C=C(C#N)C(=O)C(C)(C)[C@@H]2CC3)n1 [TX63734]		43	
COc1ccccc1-c1c2c(nn1C)[C@@]1(C)C=C(C#N)C(=O)C(C)(C)[C@@H]1CC2 [TX63509]		38	
CC(=O)n1cc2c(n1)[C@@]1(C)C=C(C#N)C(=O)C(C)(C)[C@@H]1CC2 [TX63463]		≥ 205	
CC1(C)C(=O)C(C#N)=C[C@]2(C)c3nn(C(=O)c4ccccc4)cc3CC[C@@H]12 [TX63642]		147	
COc1nc(-c2ccncc2)nc2c1CC[C@H]1[C@H](C)C(=O)C(C#N)=C[C@]21C [TX63728]		6.7	
Cn1nc2c(c1Cl)CC[C@H]1C(C)(C)C(=O)C(C#N)=C[C@]21C [TX63604]	3.4	49	
Cn1nc2c(c1-c1ccccc1)CC[C@H]1C3(CCCC3)C(=O)C(C#N)=C[C@]21C [TX63504]		20	
CC1(C)C(=O)C(C#N)=C[C@]2(C)c3nc(-c4cccnc4)ncc3CC[C@@H]12 [TX63586]	2.9	22	
CC1(C)C(=O)C(C#N)=C[C@]2(C)c3c(cnc4c(-c5ccccc5)cnn34)CC[C@@H]12 [TX63626]		38	
Cn1cnc(-c2c3c(nn2C)[C@@]2(C)C=C(C#N)C(=O)C(C)(C)[C@@H]2CC3)n1 [TX63714]		> 200	
Cn1nc2c(c1-c1ccc3ccccc3c1)CC[C@H]1C(C)(C)C(=O)C(C#N)=C[C@]21C [TX63600]		59	
C[C@@H]1C(=O)[C@]2(C#N)O[C@@H]2[C@]2(C)c3nn(C)c(-c4ccccc4)c3CC[C@@H]12 [TX63848]		9.5	
CC1(C)C(=O)C(C#N)=C[C@]2(C)c3nn(C(C)(C)C)cc3CC[C@@H]12 [TX63450]		148	
C[C@@H]1C(=O)C(C#N)=C[C@]2(C)c3nn(C)c(-c4cn(C)[n+]([O-])c4)c3CC[C@@H]12 [TX63849]		> 200	
Cc1ccc(-c2c3c(nn2C)[C@@]2(C)C=C(C#N)C(=O)C(C)(C)[C@@H]2CC3)cc1 [TX63514]		37	
C[C@@H]1C(=O)C(C#N)=C[C@]2(C)c3nn(C)c(-c4cccc(F)c4)c3CC[C@@H]12 [TX63659]		8.1	
CC[C@@H]1C(=O)C(C#N)=C[C@]2(C)c3nn(C)cc3CC[C@@H]12 [TX63589]		44	
COc1nc(C)nc2c1CC[C@H]1C(C)(C)C(=O)C(C#N)=C[C@]21C [TX63595]		20	
CC1(C)C(=O)C(C#N)=C[C@]2(C)c3[nH]ncc3CC[C@@H]12 [TX63467]		> 200	
COc1ncc2c(n1)[C@@]1(C)C=C(C#N)C(=O)C(C)(C)[C@@H]1CC2 [TX63528]		85	
COc1ccc(-c2c3c(nn2C)[C@@]2(C)C=C(C#N)C(=O)C(C)(C)[C@@H]2CC3)cc1 [TX63515]		35	
CC1=C2CCc3c(nn(C)c3-c3cccc(C)c3)[C@@]2(C)C=C(C#N)C1=O [TX63656]		> 200	
CC1(C)C(=O)C(C#N)=C[C@]2(C)C(=O)c3cnn(C(C)(C)C)c3C[C@@H]12 [TX63451]		137	
Cn1nc2c(c1C(=O)O)CC[C@H]1C(C)(C)C(=O)C(C#N)=C[C@]21C [TX63631]		> 200	
